Measurements reported in patent US8188090B2, “Naphthylacetic acids” (Hoffman-La Roche Inc., priority 2008, dated 2012).

Target: T1, human CRTH2 (Homo sapiens, UniProt Q9Y5Y4)
T1 sequence (Q9Y5Y4 1-395): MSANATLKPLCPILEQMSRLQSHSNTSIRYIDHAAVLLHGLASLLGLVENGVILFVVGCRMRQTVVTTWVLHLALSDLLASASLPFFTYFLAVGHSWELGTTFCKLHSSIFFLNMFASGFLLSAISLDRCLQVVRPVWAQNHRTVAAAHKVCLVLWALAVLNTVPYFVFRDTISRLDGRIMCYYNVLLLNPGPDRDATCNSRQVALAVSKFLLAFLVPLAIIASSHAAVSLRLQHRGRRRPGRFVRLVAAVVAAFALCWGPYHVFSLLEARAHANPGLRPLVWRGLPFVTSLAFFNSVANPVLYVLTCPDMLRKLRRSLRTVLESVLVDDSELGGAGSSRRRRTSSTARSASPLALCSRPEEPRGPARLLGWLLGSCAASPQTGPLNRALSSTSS
Assay: Human CRTH2 Receptor Binding Assay (whole cell, [3H]ramatroban)
Set-up: expressed in transfected cells; host or cells: CHO-K1
Conditions: whole CHO-K1 cells stably expressing human CRTH2 and G-alpha16; 20 nM [3H]ramatroban; 1 hour, room temperature
Text: A whole cell receptor binding assay using [^3H]ramatroban as the competing radioactive ligand was employed to evaluate the compound binding activity to human CRTH2. The radioactive ligand [^3H]ramatroban was synthesized according to Sugimoto et. al. (Eur. J. Pharmacol. 524, 30-37, 2005) to a specific activity of 42 Ci/mmol.
A cell line stably expressing human CRTH2 was established by transfecting CHO-K1 cells with two mammalian expression vectors that harbored human CRTH2 and G-alpha16 cDNAs, respectively, using FuGene® 6 transfection reagent (from Roche). Stable clones expressing CRTH2 were selected by staining each clone with BM16 (BD Pharmingen™ from BD Biosciences, a division of Becton, Dickinson and Company), which is a rat monoclonal antibody to human CRTH2. The cells were maintained as monolayer cultures in Ham's F-12 medium containing 10% fetal bovine serum, 100 units/mL penicillin, 100 μg/mL streptomycin, 2 mM glutamine, 0.5 mg/mL G418 (geneticin) for CRTH2, and 0.2 mg/mL hygromycin-B (for G-alpha 16). For whole cell receptor binding assay, the monolayer cells were rinsed once with PBS (phosphate buffered saline), dissociated using ethylenediaminetetraacetate (Versene™ EDTA from Lonza Inc.), and suspended in PBS containing 10 mM MgCl2 and 0.06% BSA (bovine serum albumin) at 1.5×10^6 cells/mL.
The binding reactions (0.2 mL) were performed in 96-well plates at room temperature in PBS containing 1.5×10^5 cells, 10 mM MgCl2, 0.06% BSA, 20 nM [^3H]ramatroban, and test compound at various concentrations. After 1 hour of binding reactions, the cells were harvested on GF™/B filter microplates (microtiter plates with embedded glass fiber from PerkinElmer, Inc.) and washed 5 times with PBS using a Filtermate™ Harvester (a cell harvester that harvests and washes cells from microplates from PerkinElmer, Inc.). The radioactivities bound to the cells were determined using a microplate scintillation counter (TopCount® NXT, from PerkinElmer, Inc.) after adding 50 μL of Microscint™ 20 scintillation fluid (from PerkinElmer, Inc.) to each well of the filter plates. The radioactivity from non-specific binding was determined by replacing compound with 10 μM of 15(R)-15-methyl PGD2 (from Cayman Chemical Company) in the reaction mixtures. The radioactivity bound to the cells in the absence of compound (total binding) was determined by replacing compound with 0.25% of DMSO (dimethyl sulfoxide) in the reaction mixture. Specific binding data were obtained by subtracting the radioactivity of non-specific binding from each binding data.
The IC50 value is defined as the concentration of the tested compound that is required for 50% inhibition of total specific binding. In order to calculate the IC50 value, the percent inhibition data were determined for 7 concentrations for each compound. The percent inhibition for a compound at each concentration was calculated according to the following formula, [1-(specific binding in the presence of compound)/(total specific binding)]×100. The IC50 value was then obtained by fitting the percent inhibition data to a sigmoidal dose-response (4 parameter logistic) model in the XLfit® software Excel add-in program [from ID Business Solutions Ltd., model 205, where F(x)=(A+(B−A)/(1+((C/x)^D)))].

Row | Structure (SMILES) | IC50
1 | O=C(O)Cc1cc(OC2CCN(S(=O)(=O)C3CC3)CC2)c2cc(F)ccc2c1 [Example 4-4, [4-(1-Cyclopropanesulfonyl-piperidin-4-yloxy)-6-fluoro-naphthalen-2-yl]-acetic acid] | 25.4 nM
2 | COc1cccc(N2CCN(C(=O)c3c(C)c(CC(=O)O)cc4ccc(F)cc34)CC2)c1 [Example 2-9, {6-Fluoro-4-[4-(3-methoxy-phenyl)-piperazine-1-carbonyl]-3-methyl-naphthalen-2-yl}-acetic acid] | 63.1 nM
3 | CC(C)C(=O)N1CCC(Oc2cc(CC(=O)O)cc3ccc(F)cc23)CC1 [Example 5-3, [6-Fluoro-4-(1-isobutyryl-piperidin-4-yloxy)-naphthalen-2-yl]-acetic acid] | 141 nM
4 | O=C(O)Cc1cc(OC2CCN(C(=O)c3ccccc3F)CC2)c2cc(F)ccc2c1 [Example 5-7, {6-Fluoro-4-[1-(2-fluoro-benzoyl)-piperidin-4-yloxy]-naphthalen-2-yl}-acetic acid] | 19.4 nM
5 | Cc1c(CC(=O)O)cc2ccc(F)cc2c1C(=O)N1CC2(C1)CN(S(=O)(=O)c1ccccc1)C2 [Example 1-10, [4-(6-Benzenesulfonyl-2,6-diaza-spiro[3.3]heptane-2-carbonyl)-6-fluoro-3-methyl-naphthalen-2-yl]-acetic acid] | 207 nM
6 | O=C(O)Cc1cc(OC2CCN(C(=O)c3cccc(F)c3)CC2)c2cc(F)ccc2c1 [Example 5-8, {6-Fluoro-4-[1-(3-fluoro-benzoyl)-piperidin-4-yloxy]-naphthalen-2-yl}-acetic acid] | 29.8 nM
7 | Cc1c(CC(=O)O)cc2ccc(F)cc2c1C(=O)N1CCN(S(=O)(=O)C2CC2)CC1 [Example 1-6, [4-(4-Cyclopropanesulfonyl-piperazine-1-carbonyl)-6-fluoro-3-methyl-naphthalen-2-yl]-acetic acid] | 9.1 nM
8 | Cc1ccc(N2CCN(C(=O)c3c(C)c(CC(=O)O)cc4ccc(F)cc34)CC2)cc1 [Example 2-16, [6-Fluoro-3-methyl-4-(4-p-tolyl-piperazine-1-carbonyl)-naphthalen-2-yl]-acetic acid] | 26.8 nM
9 | O=C(O)Cc1cc(OC2CCN(C(=O)Nc3ccc(F)cc3)CC2)c2cc(F)ccc2c1 [Example 6-4, {6-Fluoro-4-[1-(4-fluoro-phenylcarbamoyl)-piperidin-4-yloxy]-naphthalen-2-yl}-acetic acid] | 5 nM
10 | Cc1c(CC(=O)O)cc2ccc(F)cc2c1C(=O)N1CCN(c2cc(Cl)cc(Cl)c2)CC1 [Example 2-17, {4-[4-(3,5-Dichloro-phenyl)-piperazine-1-carbonyl]-6-fluoro-3-methyl-naphthalen-2-yl}-acetic acid] | 21.9 nM
11 | Cc1c(CC(=O)O)cc2ccc(F)cc2c1C(=O)N1CCN(c2cccc(Cl)c2)CC1 [Example 2-21, {4-[4-(3-Chloro-phenyl)-piperazine-1-carbonyl]-6-fluoro-3-methyl-naphthalen-2-yl}-acetic acid] | 18.9 nM
12 | Cc1c(CC(=O)O)cc2ccc(F)cc2c1C(=O)N1CCN(c2cccc(C(F)(F)F)c2)CC1 [Example 2-7, {6-Fluoro-3-methyl-4-[4-(3-trifluoromethyl-phenyl)-piperazine-1-carbonyl]-naphthalen-2-yl}-acetic acid] | 57.1 nM
13 | Cc1c(CC(=O)O)cc2ccc(F)cc2c1C(=O)N1CCN(S(=O)(=O)C(C)C)CC1 [Example 1-4, {6-Fluoro-3-methyl-4-[4-(propane-2-sulfonyl)-piperazine-1-carbonyl]-naphthalen-2-yl}-acetic acid] | 15.5 nM
14 | Cc1c(CC(=O)O)cc2ccc(F)cc2c1C(=O)N1CCN(c2ncccn2)CC1 [Example 2-5, [6-Fluoro-3-methyl-4-(4-pyrimidin-2-yl-piperazine-1-carbonyl)-naphthalen-2-yl]-acetic acid] | 276 nM
15 | O=C(O)Cc1cc(C(=O)N2CCN(S(=O)(=O)c3ccccc3)CC2)c2cc(C(F)(F)F)ccc2c1 [Example 1-18, [4-(4-Benzenesulfonyl-piperazine-1-carbonyl)-6-trifluoromethyl-naphthalen-2-yl]-acetic acid] | 6 nM
16 | Cc1c(CC(=O)O)cc2ccc(F)cc2c1C(=O)N1CCN(S(=O)(=O)c2ccccc2)CC1 [Example 1-9, [4-(4-Benzenesulfonyl-piperazine-1-carbonyl)-6-fluoro-3-methyl-naphthalen-2-yl]-acetic acid] | 3.7 nM
17 | CCCS(=O)(=O)N1CCN(C(=O)c2cc(CC(=O)O)cc3ccc(F)cc23)CC1 [Example 1-7, {6-Fluoro-4-[4-(propane-1-sulfonyl)-piperazine-1-carbonyl]-naphthalen-2-yl}-acetic acid] | 6.5 nM
18 | O=C(O)Cc1cc(OC2CCN(C(=O)C3CCCC3)CC2)c2cc(F)ccc2c1 [Example 5-5, [4-(1-Cyclopentanecarbonyl-piperidin-4-yloxy)-6-fluoro-naphthalen-2-yl]-acetic acid] | 53.3 nM
19 | O=C(O)Cc1cc(OC2CCN(S(=O)(=O)Cc3ccccc3)CC2)c2cc(F)ccc2c1 [Example 4-10, [6-Fluoro-4-(1-phenylmethanesulfonyl-piperidin-4-yloxy)-naphthalen-2-yl]-acetic acid] | 2.7 nM
20 | Cc1c(CC(=O)O)cc2ccc(F)cc2c1C(=O)N1CCN(c2ccccn2)CC1 [Example 2-2, [6-Fluoro-3-methyl-4-(4-pyridin-2-yl-piperazine-1-carbonyl)-naphthalen-2-yl]-acetic acid] | 2.6 nM
21 | Cc1c(CC(=O)O)cc2ccc(F)cc2c1C(=O)N1CCN(c2ccc(C#N)cc2)CC1 [Example 2-24, {4-[4-(4-Cyano-phenyl)-piperazine-1-carbonyl]-6-fluoro-3-methyl-naphthalen-2-yl}-acetic acid] | 22 nM
22 | Cc1c(CC(=O)O)cc2ccc(F)cc2c1C(=O)N1CCN(c2cc(C(F)(F)F)cc(C(F)(F)F)c2)CC1 [Example 2-11, {4-[4-(3,5-Bis-trifluoromethyl-phenyl)-piperazine-1-carbonyl]-6-fluoro-3-methyl-naphthalen-2-yl}-acetic acid] | 201 nM
23 | O=C(O)Cc1cc(OC2CCN(C(=O)C3CC3)CC2)c2cc(F)ccc2c1 [Example 5-4, [4-(1-Cyclopropanecarbonyl-piperidin-4-yloxy)-6-fluoro-naphthalen-2-yl]-acetic acid] | 67.8 nM
24 | Cc1c(CC(=O)O)cc2ccc(F)cc2c1C(=O)N1CCN(c2ccc(F)cc2)CC1 [Example 2-1, {6-Fluoro-4-[4-(4-fluoro-phenyl)-piperazine-1-carbonyl]-3-methyl-naphthalen-2-yl}-acetic acid] | 18.2 nM
25 | O=C(O)Cc1cc(C(=O)N2CCN(S(=O)(=O)c3ccccc3)CC2)c2cc(OC(F)(F)F)ccc2c1 [Example 1-19, [4-(4-Benzenesulfonyl-piperazine-1-carbonyl)-6-trifluoromethoxy-naphthalen-2-yl]-acetic acid] | 1.7 nM
26 | Cc1c(CC(=O)O)cc2ccc(F)cc2c1C(=O)N1CCN(c2ccccc2F)CC1 [Example 2-3, {6-Fluoro-4-[4-(2-fluoro-phenyl)-piperazine-1-carbonyl]-3-methyl-naphthalen-2-yl}-acetic acid] | 151 nM
27 | CS(=O)(=O)N1CCC(Oc2cc(CC(=O)O)cc3ccc(F)cc23)CC1 [Example 4-1, [6-Fluoro-4-(1-methanesulfonyl-piperidin-4-yloxy)-naphthalen-2-yl]-acetic acid] | 9.3 nM
